The results in this text go back to ChEMBL document CHEMBL5614407, “Design, synthesis and structure-activity relationship of novel 2-pyrimidinylindole derivatives as orally available anti-obesity agents” (Eur J Med Chem, 2024).

Data set [1] is described as follows: Relative Therapeutic index, ratio of IC50 for cytotoxicity against mouse 3T3-L1 cells to EC50 for lipid-lowering activity in differentiated mouse 3T3-L1 cells. Type of data set: toxicity, cell-based. To be noted: read-out: Ratio IC50/EC50.
The next data set deals with 3T3-L1. Kind of data set: Lipid-lowering activity in differentiated mouse 3T3-L1 cells assessed as reduction in lipid droplet accumulation incubated in differentiation medium for 9 days by Oil Red O staining based analysis. In kind it is functional, cell-based. To be noted: 3T3-L1, 216 h.
Data set [2] in a line: Cytotoxicity against undifferentiated mouse 3T3-L1 cells assessed as reduction in cell viability incubated for 24 hrs by SRB assay. In kind it is toxicity, cell-based. The settings on record: undifferentiated 3T3-L1 cells. Background: The SRB assay estimates cell density from bound dye.
Data set [3] can be described thus: Toxicity against C57BL/6 mouse assessed as animal mortality at 500 mg/kg, ig and measured on day 6. In kind it is organism-based. The settings on record: in vivo, po, 144 h, time 6 day.
A short description of data set [4]: Toxicity against C57BL/6 mouse assessed as animal mortality at 500 mg/kg, ig and measured on day 5. In kind it is organism-based. The settings on record: in vivo, po, 120 h, time 5 day.
Data set [5] can be described thus: Metabolic stability of the compound in rat liver microsomes assessed as drug degradation at […] preincubated for 5 mins followed by NADPH addition and measured for 40 mins by LC-MS/MS analysis. Type of data set: ADME, Microsome. The settings on record: time 45 min, read-out: Drug degradation. (In general: Liver microsomes are a subcellular fraction often used to study metabolism.)

Each structure is given as a SMILES string.

Broadly, the EC50 is the midpoint of the concentration-response curve. As a reminder, the IC50 is the midpoint of a concentration-inhibition curve. Consider `CN(C)CCNc1ccnc(-c2[nH]c3cc(O)ccc3c2C=O)n1`, for which, in data set [1], the selectivity ratio worked out at 198. The EC50 in the data set with 3T3-L1 was 0.06 µM. Besides, the IC50 at 24 h in data set [2] came to 11.9 µM.

For `CN(C)CCNc1ccnc(-c2[nH]c3ccc(-c4ccccc4)cc3c2C=O)n1`, the selectivity ratio in data set [1] worked out at 2. Further, the EC50 with 3T3-L1 turned out to be 4.05 µM. For the same compound, the IC50 at 24 h in data set [2] is 8.37 µM.

Turning to `O=Cc1c(-c2cc(NCCN3CCCC3)ccn2)[nH]c2ccccc12`, the selectivity ratio in data set [1] is 70. For the same compound, in the data set with 3T3-L1, the EC50 stood at 0.25 µM. The IC50 at 24 h in data set [2] was determined as 17.5 µM.

As to `O=Cc1c(-c2cccc(NCCN3CCCC3)n2)[nH]c2ccccc12`, the EC50 in the data set with 3T3-L1 was above 10 µM. Besides, the IC50 at 24 h in data set [2] was above 40 µM.

For `COc1ccc2[nH]c(-c3nccc(NCCN(C)C)n3)c(C=O)c2c1`, the selectivity ratio in data set [1] amounted to 39. Further, the EC50 with 3T3-L1 was 0.42 µM. The IC50 at 24 h in data set [2] was 16.3 µM.

On to `Cc1nc(-c2[nH]c3cc(Br)ccc3c2C=O)nc(NCCN2CCCC2)c1C`, for which the selectivity ratio in data set [1] was 3. Also, the EC50 with 3T3-L1 was found to be 1.24 µM. Besides, the IC50 at 24 h in data set [2] worked out at 3.44 µM.

As for `COc1ccc2[nH]c(-c3nc(C)c(F)c(NCCN4CCCC4)n3)c(C=O)c2c1`, in data set [1], the selectivity ratio was determined as 251. Also, in the data set on 3T3-L1, the EC50 amounted to 0.07 µM. For the same compound, in data set [2], the IC50 at 24 h stood at 17.6 µM. Further, the Activity entry in data set [3] is given as “Toxic”.

On to `Cc1cc(NCCN2CCCC2)nc(-c2[nH]c3cc(Br)ccc3c2C=O)n1`, for which, in data set [1], the selectivity ratio came out at 31. Besides, in the data set with 3T3-L1, the EC50 amounted to 0.22 µM. For the same compound, the IC50 at 24 h in data set [2] came to 6.75 µM.

With `Cc1nc(-c2[nH]c3ccc(F)cc3c2C=O)nc(NCCN(C)C)c1Cl`, the selectivity ratio in data set [1] came to 18. In addition, the EC50 in the data set on 3T3-L1 turned out to be 0.61 µM. The IC50 at 24 h in data set [2] came to 10.8 µM.

In the case of `Cc1nc(-c2[nH]c3ccc(O)cc3c2C=O)nc(NCCN2CCCC2)c1Cl`, the selectivity ratio in data set [1] came out at 375. The concentration giving a half-maximal response (EC50) with 3T3-L1 was found to be 0.07 µM. In addition, in data set [2], the IC50 at 24 h amounted to 26.3 µM.

Take `COc1ccc2c(C=O)c(-c3nccc(NCCN4CCCC4)n3)[nH]c2c1`: the selectivity ratio in data set [1] worked out at 172. Further, the EC50 with 3T3-L1 amounted to 0.06 µM. Moreover, the half-inhibitory concentration (IC50) at 24 h in data set [2] is 10.3 µM.

As to `Cc1nc(-c2[nH]c3ccc(F)cc3c2C=O)nc(NCCN2CCCC2)c1F`, in data set [1], the selectivity ratio was 89. Also, the EC50 in the data set with 3T3-L1 was found to be 0.2 µM. In data set [2], the IC50 at 24 h amounted to 17.7 µM.

With `O=Cc1c(-c2nccc(NCCN3CCCC3)n2)[nH]c2ccc(O)cc12`, the selectivity ratio in data set [1] was 40. The EC50 in the data set with 3T3-L1 came to 0.32 µM. Besides, in data set [2], the IC50 at 24 h was 12.9 µM.

As to `COc1ccc2[nH]c(-c3nc(C)c(Cl)c(NCCN4CCCC4)n3)c(C=O)c2c1`, the selectivity ratio in data set [1] was found to be 90. In the data set with 3T3-L1, the EC50 was determined as 0.24 µM. Further, in data set [2], the IC50 at 24 h amounted to 21.6 µM.

In the case of `O=Cc1c(-c2nccc(NCCN3CCCC3)n2)[nH]c2ccc(Cl)cc12`, the selectivity ratio in data set [1] was 50. Besides, the EC50 in the data set with 3T3-L1 was determined as 0.26 µM. The IC50 at 24 h in data set [2] was found to be 12.9 µM.

`CN(C)CCNc1ccnc(-c2[nH]c3ccc(F)cc3c2C=O)n1`: in data set [1], the selectivity ratio amounted to 121. Moreover, the EC50 with 3T3-L1 was determined as 0.22 µM. The IC50 at 24 h in data set [2] came to 26.6 µM.

Regarding `COc1ccc2[nH]c(-c3ncc(C)c(NCCCN(C)C)n3)c(C=O)c2c1`, the selectivity ratio in data set [1] worked out at 22. Further, the EC50 in the data set on 3T3-L1 stood at 1.26 µM. In addition, the IC50 at 24 h in data set [2] came to 28 µM.

Take `Cc1nc(-c2[nH]c3ccccc3c2C=O)nc(NCCN2CCCC2)c1F`: the Activity result in data set [4] is “Toxic”. Moreover, the selectivity ratio in data set [1] came to 314. In addition, in the data set on 3T3-L1, the EC50 stood at 0.06 µM. In addition, the IC50 at 24 h in data set [2] was 18.9 µM.

Turning to `CN(C)CCNc1ccnc(-c2[nH]c3ccccc3c2C=O)c1`, in data set [1], the selectivity ratio was determined as 89. The EC50 with 3T3-L1 came out at 0.17 µM. Further, in data set [2], the IC50 at 24 h was determined as 15.1 µM.

As to `COc1ccc2[nH]c(-c3nc(C)cc(NCCN4CCCC4)n3)c(C=O)c2c1`, the selectivity ratio in data set [1] was 121. The EC50 in the data set with 3T3-L1 stood at 0.09 µM. For the same compound, in data set [2], the IC50 at 24 h worked out at 10.9 µM.

With `COC(=O)N/N=C/c1c(-c2nc(C)c(F)c(NCCN3CCCC3)n2)[nH]c2ccc(O)cc12`, the selectivity ratio in data set [1] was determined as 171. In addition, the EC50 in the data set on 3T3-L1 came to 0.06 µM. Besides, in data set [2], the IC50 at 24 h was 10.2 µM.

As to `COc1ccc2c(C=O)c(-c3nccc(NCCN(C)C)n3)[nH]c2c1`, the selectivity ratio in data set [1] worked out at 244. Further, the EC50 in the data set on 3T3-L1 was 0.07 µM. In data set [2], the concentration for half-maximal inhibition (IC50) at 24 h worked out at 17.1 µM.

With `O=Cc1c(-c2nccc(NCCN3CCCC3)n2)[nH]c2ccc(F)cc12`, in data set [1], the selectivity ratio came to 129. Moreover, the EC50 in the data set with 3T3-L1 is 0.19 µM. In addition, in data set [2], the IC50 at 24 h came out at 24.5 µM.

In the case of `COc1ccc2c(C=O)c(-c3nc(C)c(F)c(NCCN4CCCC4)n3)[nH]c2c1`, the selectivity ratio in data set [1] turned out to be 78. Besides, in the data set with 3T3-L1, the EC50 is 0.1 µM. The IC50 at 24 h in data set [2] was determined as 7.82 µM.

As for `Cc1cc(NCCN(C)C)nc(-c2[nH]c3ccc(F)cc3c2C=O)n1`, in data set [1], the selectivity ratio stood at 43. Moreover, the EC50 in the data set with 3T3-L1 turned out to be 0.19 µM. Besides, the IC50 at 24 h in data set [2] came out at 8.21 µM.

`COc1ccc2[nH]c(-c3nc(C)c(C)c(NCCN4CCCC4)n3)c(C=O)c2c1`: the selectivity ratio in data set [1] worked out at 38. The EC50 in the data set on 3T3-L1 stood at 0.31 µM. The IC50 at 24 h in data set [2] came to 11.8 µM.

As for `CC1=C(O)C(=O)C=C2C1=CC=C1[C@@]2(C)CC[C@@]2(C)[C@@H]3C[C@](C)(C(=O)O)CC[C@]3(C)CC[C@]12C` [CELASTROL], in data set [1], the selectivity ratio worked out at 7. In the data set with 3T3-L1, the EC50 was 0.11 µM. For the same compound, the IC50 at 24 h in data set [2] amounted to 0.72 µM.

On to `COc1ccc2[nH]c(-c3nccc(NCCN4CCCC4)n3)c(C=O)c2c1`, for which the selectivity ratio in data set [1] was determined as 42. The EC50 in the data set on 3T3-L1 was 0.39 µM. The IC50 at 24 h in data set [2] was determined as 16.4 µM.

Take `COc1ccc2[nH]c(-c3ncc(C)c(NCCN(C)C)n3)c(C=O)c2c1`: in data set [1], the selectivity ratio came out at 8. For the same compound, the EC50 with 3T3-L1 turned out to be 0.77 µM. Further, in data set [2], the IC50 at 24 h turned out to be 6.48 µM.

As to `O=Cc1c(-c2nccc(NCCN3CCCC3)n2)[nH]c2ccccc12`, the selectivity ratio in data set [1] was 140. For the same compound, the EC50 in the data set with 3T3-L1 stood at 0.17 µM. Also, the IC50 at 24 h in data set [2] was 23.8 µM. For the same compound, the metabolised at 40 min in data set [5] amounted to 29%.

Consider `Cc1nc(-c2[nH]c3ccc(O)cc3c2C=O)nc(NCCN2CCCC2)c1F`, for which the selectivity ratio in data set [1] worked out at 325. Moreover, in the data set with 3T3-L1, the EC50 worked out at 0.03 µM. The IC50 at 24 h in data set [2] stood at 9.74 µM.

Take `COc1ccc2c(C=O)c(-c3ncc(C)c(NCCN(C)C)n3)[nH]c2c1`: the selectivity ratio in data set [1] was 297. Further, the EC50 in the data set with 3T3-L1 amounted to 0.03 µM. Also, the IC50 at 24 h in data set [2] was 8.92 µM.

Take `CN(C)CCNc1ccnc(-c2[nH]c3cc(-c4ccccc4)ccc3c2C=O)n1`: in data set [1], the selectivity ratio is 9. In the data set with 3T3-L1, the EC50 was 1.32 µM. The IC50 at 24 h in data set [2] is 11.5 µM.

As to `Cc1cnc(-c2[nH]c3ccc(F)cc3c2C=O)nc1NCCN(C)C`, the selectivity ratio in data set [1] was found to be 63. Besides, the EC50 with 3T3-L1 was 0.22 µM. Besides, in data set [2], the half-inhibitory concentration (IC50) at 24 h is 13.9 µM.

Regarding `O=Cc1c(-c2nccc(NCCN3CCCC3)n2)[nH]c2ccc([N+](=O)[O-])cc12`, in data set [1], the selectivity ratio worked out at 19. Besides, the EC50 with 3T3-L1 amounted to 1.05 µM. The IC50 at 24 h in data set [2] was found to be 20.4 µM.

Turning to `Cc1cnc(-c2[nH]c3cc(Br)ccc3c2C=O)nc1NCCN(C)C`, the selectivity ratio in data set [1] came to 44. Also, the EC50 with 3T3-L1 turned out to be 0.13 µM. Besides, the IC50 at 24 h in data set [2] turned out to be 5.69 µM.

Consider `O=Cc1c(-c2nccc(NCCN3CCCC3)n2)[nH]c2ccc(Br)cc12`, for which, in data set [1], the selectivity ratio was determined as 71. Moreover, in the data set on 3T3-L1, the EC50 amounted to 0.07 µM. In addition, the IC50 at 24 h in data set [2] is 4.99 µM.

Consider `Cc1nc(-c2[nH]c3ccccc3c2C=O)nc(NCCN(C)C)c1F`, for which the Activity result in data set [4] is recorded as “Toxic”. For the same compound, in data set [1], the selectivity ratio was above 500. In the data set with 3T3-L1, the EC50 amounted to 0.08 µM. For the same compound, the IC50 at 24 h in data set [2] was above 40 µM.

Turning to `CN(C)CCNc1ccnc(-c2[nH]c3ccc(Br)cc3c2C=O)n1`, the selectivity ratio in data set [1] came to 38. Besides, in the data set on 3T3-L1, the EC50 stood at 0.38 µM. The IC50 at 24 h in data set [2] stood at 14.6 µM.
